Assay results reported in patent US11446282B2, “Methods of treating mixed dyslipidemia and hypertriglycertdemia” (Kowa Company, Ltd., priority 2017, dated 2022).

What was measured:
[1] = tested on: dyslipidemic patients with renal impairment; assay: Example 3 phase III 52-week trial: lipid levels; assay type: in vivo, human; conditions: for HDL-C % Change from baseline at Week 52 (LOCF) / HDL-C Week 52 (LOCF) / LDL-C % Change from baseline at Week 52 (LOCF) / LDL-C Week 52 (LOCF) / RemL-C % Change from baseline at Week 52 (LOCF) / RemL-C Week 52 (LOCF) / TG % Change from baseline at Week 52 (LOCF) / TG Week 52 (LOCF) / TG/HDL-C % Change from baseline at Week 52 (LOCF) / TG/HDL-C Week 52 (LOCF) / apoA1 % Change from baseline at Week 52 (LOCF) / apoA1 Week 52 (LOCF) / non-HDL-C % Change from baseline at Week 52 (LOCF) / non-HDL-C Week 52 (LOCF): 0.2 (0.4) mg/day
Procedure: (§1) This was a multicenter, single-arm, open-label, phase III trial. The inclusion criteria were as follows: (1) patients with dyslipidemia aged >20 years at the time of informed consent; (2) men and postmenopausal women; (3) fasting serum TG≥1.70 mmol/L (150 mg/dL) at two consecutive measurements during screening; and (4) patients who followed dietary and physical exercise guidance for >12 weeks before enrollment.
The major exclusion criteria were as follows: (1) patients with fasting serum TG≥5.65 mmol/L (500 mg/dL) during screening; (2) patients with poorly controlled diabetes mellitus (hemoglobin A1c [HbA1c]≥10.5%); (3) patients with concurrent poorly controlled thyroid disease; (4) men with serum creatinine ≥2.5 mg/dL and women with serum creatinine ≥2.0 mg/dL during screening who were already on statin therapy; (5) patients with eGFR<45 mL/min/1.73 m^2 during screening who were already on statin therapy; (6) patients with CK>5ULN (270 IU/L for men, 150 IU/L for women) during screening who were already on statin therapy; (7) patients with serious liver disease (cirrhosis Child-Pugh Class B or higher); (8) patients with gallstones or serious biliary tract disease; (9) patients who had suffered an acute myocardial infarction or stroke within three months before informed consent; and (10) patients with New York Heart Association class III or IV heart failure.
(§2) During the screening period (8 weeks prior to treatment initiation), tests were performed twice to determine patient eligibility. Thereafter, eligible patients orally received pemafibrate 0.2 mg/day (twice daily) for 52 weeks. From week 12 of the treatment period onwards, the investigators were instructed that the dose could be increased from 0.2 mg/day to 0.4 mg/day (twice daily) if there was an inadequate response to the initial dose based on fasting serum TG levels ≥1.70 mmol/L (150 mg/dL). Fasting blood and urine samples were collected at each visit. Blood and urine sample in patients with hemodialysis were collected just before dialysis. LDL-C levels were measured using the direct method. Lipoprotein fractions were measured by HPLC at baseline and weeks 12 and 40.
The primary efficacy endpoint was the percent change in fasting serum TG from baseline to the last evaluation point. The primary safety endpoints were the incidence of an AE or ADR occurring after drug administration during the study. Secondary efficacy endpoints included percent changes in lipid variables and changes in inflammation variables at week 52 [using the last-observation-carried-forward (LOCF)]. Secondary safety endpoints included changes in the levels of aspartate aminotransferase (AST), ALT, -GT, ALP, serum creatinine, eGFR, and CK at week 52. Each baseline value was defined as (1) the mean of the corresponding values in the first and second tests at the screening examination and at week 0 of the treatment period for fasting serum TG, HDL-C, total cholesterol (TC), LDL-C, and non-HDL-C; and (2) the value at week 0 of the treatment period for the other secondary variables.
The target sample size was set to 170 patients based on the number required to evaluate safety according to the International Conference on Harmonisation (ICH)-E1 guideline “Extent of population exposure to assess clinical safety for drugs intended for long-term treatment of non-life-threatening conditions”. For the primary efficacy endpoint, one-sample t-tests were performed.
The numbers of patients with AEs and ADRs and the incidences of AEs and ADRs were calculated in the analysis of primary safety endpoints. For the secondary efficacy endpoints, one-sample t-tests or Wilcoxon signed-rank tests [for high-sensitivity C-reactive protein (hsCRP) and IL-1] were performed. The secondary safety endpoints were analyzed with Wilcoxon signed-rank tests. A two-sided significance level of 0.05 was used. SAS v. 9.3 (SAS Institute Inc., Cary, N.C., USA) was used for these analyses. […]

[2] = tested on: dyslipidemic patients with renal impairment; assay: Example 3 phase III 52-week trial: adverse events and adverse drug reactions; assay type: in vivo, human
Procedure: as §1, §2
The primary efficacy endpoint was the percent change in fasting serum TG from baseline to the last evaluation point. The primary safety endpoints were the incidence of an AE or ADR occurring after drug administration during the study. Secondary efficacy endpoints included percent changes in lipid variables and changes in inflammation variables at week 52 [using the last-observation-carried-forward (LOCF)]. Secondary safety endpoints included changes in the levels of aspartate aminotransferase (AST), ALT, -GT, ALP, serum creatinine, eGFR, and CK at week 52. […]
The numbers of patients with AEs and ADRs and the incidences of AEs and ADRs were calculated in the analysis of primary safety endpoints. […] The secondary safety endpoints were analyzed with Wilcoxon signed-rank tests. […] Where indicated, the data are expressed as means±standard deviation (SD).

## CC[C@@H](Oc1cccc(CN(CCCOc2ccc(OC)cc2)c2nc3ccccc3o2)c1)C(=O)O [Pemafibrate, (2R)-2-[3-({1,3-benzoxazol-2-yl[3-(4-methoxyphenoxy)propyl]amino}methyl)phenoxy]butanoic acid]
[1]; All Participants
  HDL-C % Change from baseline at Week 52 (LOCF): 13.1%
  HDL-C Week 52 (LOCF): 1.33 mmol/L
  LDL-C % Change from baseline at Week 52 (LOCF): 2.2%
  LDL-C Week 52 (LOCF): 3.02 mmol/L
  RemL-C % Change from baseline at Week 52 (LOCF): −57.2%
  RemL-C Week 52 (LOCF): 0.18 mmol/L
  TG % Change from baseline at Week 52 (LOCF): −45.8%
  TG Week 52 (LOCF): 1.48 mmol/L
  TG/HDL-C % Change from baseline at Week 52 (LOCF): −49.7%
  TG/HDL-C Week 52 (LOCF): 2.27 (mmol/L)/(mmol/L)
  apoA1 % Change from baseline at Week 52 (LOCF): 5.0%
  apoA1 Week 52 (LOCF): 137.6 mg/dL
  non-HDL-C % Change from baseline at Week 52 (LOCF): −8.7%
  non-HDL-C Week 52 (LOCF): 3.63 mmol/L
[1]; eGFR G1 (≥90)
  HDL-C % Change from baseline at Week 52 (LOCF): 3.6%
  HDL-C Week 52 (LOCF): 1.29 mmol/L
  LDL-C % Change from baseline at Week 52 (LOCF): 2.7%
  LDL-C Week 52 (LOCF): 3.12 mmol/L
  RemL-C % Change from baseline at Week 52 (LOCF): −59.9%
  RemL-C Week 52 (LOCF): 0.21 mmol/L
  TG % Change from baseline at Week 52 (LOCF): −41.4%
  TG Week 52 (LOCF): 1.71 mmol/L
  TG/HDL-C % Change from baseline at Week 52 (LOCF): −40.5%
  TG/HDL-C Week 52 (LOCF): 1.58 (mmol/L)/(mmol/L)
  apoA1 % Change from baseline at Week 52 (LOCF): 0.0%
  apoA1 Week 52 (LOCF): 133.8 mg/dL
  non-HDL-C % Change from baseline at Week 52 (LOCF): −8.3%
  non-HDL-C Week 52 (LOCF): 3.77 mmol/L
[1]; eGFR G2 (≥60 and <90)
  HDL-C % Change from baseline at Week 52 (LOCF): 11.9%
  HDL-C Week 52 (LOCF): 1.34 mmol/L
  LDL-C % Change from baseline at Week 52 (LOCF): 2.1%
  LDL-C Week 52 (LOCF): 3.03 mmol/L
  RemL-C % Change from baseline at Week 52 (LOCF): −56.0%
  RemL-C Week 52 (LOCF): 0.18 mmol/L
  TG % Change from baseline at Week 52 (LOCF): −45.8%
  TG Week 52 (LOCF): 1.47 mmol/L
  TG/HDL-C % Change from baseline at Week 52 (LOCF): −48.9%
  TG/HDL-C Week 52 (LOCF): 1.24 (mmol/L)/(mmol/L)
  apoA1 % Change from baseline at Week 52 (LOCF): 4.1%
  apoA1 Week 52 (LOCF): 137.2 mg/dL
  non-HDL-C % Change from baseline at Week 52 (LOCF): −8.4%
  non-HDL-C Week 52 (LOCF): 3.64 mmol/L
[1]; eGFR G3a-G3b (≥30 and <60)
  HDL-C % Change from baseline at Week 52 (LOCF): 17.0%
  HDL-C Week 52 (LOCF): 1.38 mmol/L
  LDL-C % Change from baseline at Week 52 (LOCF): 5.1%
  LDL-C Week 52 (LOCF): 2.97 mmol/L
  RemL-C % Change from baseline at Week 52 (LOCF): −59.3%
  RemL-C Week 52 (LOCF): 0.17 mmol/L
  TG % Change from baseline at Week 52 (LOCF): −51.1%
  TG Week 52 (LOCF): 1.36 mmol/L
  TG/HDL-C % Change from baseline at Week 52 (LOCF): −57.0%
  TG/HDL-C Week 52 (LOCF): 1.09 (mmol/L)/(mmol/L)
  apoA1 % Change from baseline at Week 52 (LOCF): 8.0%
  apoA1 Week 52 (LOCF): 144.0 mg/dL
  non-HDL-C % Change from baseline at Week 52 (LOCF): −7.7%
  non-HDL-C Week 52 (LOCF): 3.56 mmol/L
[1]; eGFR G4-G5 (<30)
  HDL-C % Change from baseline at Week 52 (LOCF): 34.1%
  HDL-C Week 52 (LOCF): 1.18 mmol/L
  LDL-C % Change from baseline at Week 52 (LOCF): −8.8%
  LDL-C Week 52 (LOCF): 2.82 mmol/L
  RemL-C % Change from baseline at Week 52 (LOCF): −57.1%
  RemL-C Week 52 (LOCF): 0.24 mmol/L
  TG % Change from baseline at Week 52 (LOCF): −37.7%
  TG Week 52 (LOCF): 1.64 mmol/L
  TG/HDL-C % Change from baseline at Week 52 (LOCF): −51.0%
  TG/HDL-C Week 52 (LOCF): 1.68 (mmol/L)/(mmol/L)
  apoA1 % Change from baseline at Week 52 (LOCF): 16.7%
  apoA1 Week 52 (LOCF): 122.4 mg/dL
  non-HDL-C % Change from baseline at Week 52 (LOCF): −17.3%
  non-HDL-C Week 52 (LOCF): 3.48 mmol/L
[1]; lowest eGFR group (eGFR<30 mL/min/1.73 m^2: G4-G5)
  LDL-C change (observation): reduction
[2]; 0.2 (0.4) mg/day, 52 weeks
  incidence of adverse drug reactions: 31.7%
  incidence of adverse events: 82.0%
[2]; in vivo
  association of adverse event and adverse drug reaction incidences with baseline eGFR: not associated
